MIC data for ten compounds are collected here from ChEMBL document CHEMBL5625248, “Identification of unique indolylcyanoethylenyl sulfonylanilines as novel structural scaffolds of potential antibacterial agents” (Eur J Med Chem, 2023).

Values after ≈ are worked out from the molar mass of the structure shown.

Type in all cases: functional
Assay [1] has as its system Staphylococcus aureus. The experiment in a line: Antibacterial activity against methicilin-resistant Staphylococcus aureus N315 assessed as inhibition of bacterial growth incubated for 18 hrs by two fold broth microdilution assay.
Assay [2] relates to Enterococcus faecalis. The experiment in a line: Antibacterial activity against Enterococcus faecalis assessed as inhibition of bacterial growth incubated for 18 hrs by two fold broth microdilution assay.
In assay [3] the test system is Staphylococcus aureus. The experiment in a line: Antibacterial activity against Staphylococcus aureus assessed as inhibition of bacterial growth incubated for 18 hrs by two fold broth microdilution assay.
The subject of assay [4] is Staphylococcus aureus. Kind of assay: Antibacterial activity against Staphylococcus aureus ATCC 25923 assessed as inhibition of bacterial growth incubated for 18 hrs by two fold broth microdilution assay.
The test system of assay [5] is Staphylococcus aureus. Kind of assay: Antibacterial activity against Staphylococcus aureus ATCC 29213 assessed as inhibition of bacterial growth incubated for 18 hrs by two fold broth microdilution assay.
In assay [6] the test system is Klebsiella pneumoniae. Kind of assay: Antibacterial activity against Klebsiella pneumoniae assessed as inhibition of bacterial growth incubated for 18 hrs by two fold broth microdilution assay.
In assay [7] the test system is Escherichia coli. The experiment in a line: Antibacterial activity against Escherichia coli assessed as inhibition of bacterial growth incubated for 18 hrs by two fold broth microdilution assay.
For assay [8], the system named is Pseudomonas aeruginosa. The experiment in a line: Antibacterial activity against Pseudomonas aeruginosa assessed as inhibition of bacterial growth incubated for 18 hrs by two fold broth microdilution assay.
The subject of assay [9] is Acinetobacter baumannii. Kind of assay: Antibacterial activity against Acinetobacter baumannii assessed as inhibition of bacterial growth incubated for 18 hrs by two fold broth microdilution assay.
Assay [10] relates to Pseudomonas aeruginosa. Kind of assay: Antibacterial activity against Pseudomonas aeruginosa ATCC 27853 assessed as inhibition of bacterial growth incubated for 18 hrs by two fold broth microdilution assay.
Assay [11] concerns Escherichia coli. Kind of assay: Antibacterial activity against Escherichia coli ATCC 25922 assessed as inhibition of bacterial growth incubated for 18 hrs by two fold broth microdilution assay.

Take `Cc1cccc2c(/C=C(\C#N)S(=O)(=O)c3ccc(N)cc3)c[nH]c12`: the minimal inhibitory concentration (MIC) was determined as 128 µg/mL (≈ 379 µM) in assay [1]; 256 µg/mL (≈ 759 µM) in assay [2]; 256 µg/mL (≈ 759 µM) in assay [3]; 128 µg/mL (≈ 379 µM) in assay [4]; 32 µg/mL (≈ 94.8 µM) in assay [5]; 4 µg/mL (≈ 11.9 µM) in [6]. In addition, the MIC in [7] worked out at 64 µg/mL (≈ 190 µM); in assay [8], 64 µg/mL (≈ 190 µM); in assay [9] it was 4 µg/mL (≈ 11.9 µM); in assay [10] it was 64 µg/mL (≈ 190 µM); in assay [11], 4 µg/mL (≈ 11.9 µM).
Consider `CC(=O)Nc1ccc(S(=O)(=O)/C(C#N)=C/c2c[nH]c3ccccc23)cc1`, for which the minimal inhibitory concentration (MIC) stood at 8 µg/mL (≈ 21.9 µM) in assay [1]; 2 µg/mL (≈ 5.47 µM) in assay [2]; 256 µg/mL (≈ 701 µM) in assay [3]; 8 µg/mL (≈ 21.9 µM) in assay [4]; 8 µg/mL (≈ 21.9 µM) in assay [5]; 16 µg/mL (≈ 43.8 µM) in [6]. Moreover, the MIC in assay [7] turned out to be 64 µg/mL (≈ 175 µM); in assay [8] it was 32 µg/mL (≈ 87.6 µM); in assay [9], 0.5 µg/mL (≈ 1.37 µM); in assay [10], 1 µg/mL (≈ 2.74 µM); in assay [11], 4 µg/mL (≈ 10.9 µM).
For `Cn1cc(/C=C(\C#N)S(=O)(=O)c2ccc(N)cc2)c2ccccc21`, the MIC was determined as 128 µg/mL (≈ 379 µM) in assay [1]; 256 µg/mL (≈ 759 µM) in assay [2]; 256 µg/mL (≈ 759 µM) in [3]; 128 µg/mL (≈ 379 µM) in assay [4]; 32 µg/mL (≈ 94.8 µM) in [5]; 4 µg/mL (≈ 11.9 µM) in [6]. Also, the minimum inhibitory concentration (MIC) in [7] was 64 µg/mL (≈ 190 µM); in assay [8], 64 µg/mL (≈ 190 µM); in assay [9], 2 µg/mL (≈ 5.93 µM); in assay [10], 64 µg/mL (≈ 190 µM); in assay [11], 2 µg/mL (≈ 5.93 µM).
With `CC(=O)Nc1ccc(S(=O)(=O)/C(C#N)=C/c2c[nH]c3cc(F)ccc23)cc1`, the MIC in [1] stood at 64 µg/mL (≈ 167 µM); in assay [2], 32 µg/mL (≈ 83.5 µM); in [3], 32 µg/mL (≈ 83.5 µM); in [4], 128 µg/mL (≈ 334 µM); in assay [5], 32 µg/mL (≈ 83.5 µM); in assay [6] it was 128 µg/mL (≈ 334 µM). In addition, the minimum inhibitory concentration (MIC) in assay [7] was 128 µg/mL (≈ 334 µM); in assay [8] it was 64 µg/mL (≈ 167 µM); in assay [9], 16 µg/mL (≈ 41.7 µM); in assay [10], 8 µg/mL (≈ 20.9 µM); in [11], 8 µg/mL (≈ 20.9 µM).
For the compound `C=CCn1cc(/C=C(\C#N)S(=O)(=O)c2ccc(NC(C)=O)cc2)c2ccccc21`, the minimal inhibitory concentration (MIC) was determined as 8 µg/mL (≈ 19.7 µM) in assay [1]; 8 µg/mL (≈ 19.7 µM) in [2]; 256 µg/mL (≈ 631 µM) in [3]; 4 µg/mL (≈ 9.86 µM) in assay [4]; 256 µg/mL (≈ 631 µM) in assay [5]; 8 µg/mL (≈ 19.7 µM) in assay [6]. The minimum inhibitory concentration (MIC) in [7] stood at 8 µg/mL (≈ 19.7 µM); in [8] it was 8 µg/mL (≈ 19.7 µM); in assay [9], 2 µg/mL (≈ 4.93 µM); in assay [10] it was 16 µg/mL (≈ 39.5 µM); in assay [11], 1 µg/mL (≈ 2.47 µM).
On to `N#C/C(=C\c1cn(Cc2ccccc2F)c2ccccc12)S(=O)(=O)c1ccc(N)cc1`, for which the minimum inhibitory concentration (MIC) was found to be 64 µg/mL (≈ 148 µM) in assay [1]; 64 µg/mL (≈ 148 µM) in assay [2]; 256 µg/mL (≈ 593 µM) in assay [3]; 8 µg/mL (≈ 18.5 µM) in assay [4]; 4 µg/mL (≈ 9.27 µM) in assay [5]; 128 µg/mL (≈ 297 µM) in assay [6]. Moreover, the MIC in [7] is 256 µg/mL (≈ 593 µM); in assay [8], 64 µg/mL (≈ 148 µM); in [9], 256 µg/mL (≈ 593 µM); in assay [10], 128 µg/mL (≈ 297 µM); in assay [11], 8 µg/mL (≈ 18.5 µM).
In the case of `CC(=O)Nc1ccc(S(=O)(=O)/C(C#N)=C/c2cn(CC(=O)OC(C)(C)C)c3ccccc23)cc1`, the minimal inhibitory concentration (MIC) in assay [1] is 256 µg/mL (≈ 534 µM); in [2], 128 µg/mL (≈ 267 µM); in assay [3] it was 128 µg/mL (≈ 267 µM); in [4] it was 128 µg/mL (≈ 267 µM); in [5] it was 16 µg/mL (≈ 33.4 µM); in [6] it was 128 µg/mL (≈ 267 µM). Besides, the MIC in [7] turned out to be 256 µg/mL (≈ 534 µM); in assay [8], 128 µg/mL (≈ 267 µM); in assay [9] it was 128 µg/mL (≈ 267 µM); in assay [10], 128 µg/mL (≈ 267 µM); in [11] it was 256 µg/mL (≈ 534 µM).
Turning to `CC(=O)Nc1ccc(S(=O)(=O)/C(C#N)=C/c2cn(CCN3CCOCC3)c3ccccc23)cc1`, the MIC worked out at 32 µg/mL (≈ 66.9 µM) in assay [1]; 256 µg/mL (≈ 535 µM) in [2]; 128 µg/mL (≈ 267 µM) in assay [3]; 32 µg/mL (≈ 66.9 µM) in [4]; 32 µg/mL (≈ 66.9 µM) in assay [5]; 256 µg/mL (≈ 535 µM) in assay [6]. Further, the MIC in assay [7] was determined as 64 µg/mL (≈ 134 µM); in [8], 4 µg/mL (≈ 8.36 µM); in assay [9], 32 µg/mL (≈ 66.9 µM); in assay [10], 8 µg/mL (≈ 16.7 µM); in [11] it was 0.5 µg/mL (≈ 1.04 µM).
With `N#C/C(=C\c1cn(CCN2CCOCC2)c2ccccc12)S(=O)(=O)c1ccc(N)cc1`, the MIC in [1] was 16 µg/mL (≈ 36.7 µM); in assay [2], 256 µg/mL (≈ 586 µM); in assay [3], 32 µg/mL (≈ 73.3 µM); in assay [4], 32 µg/mL (≈ 73.3 µM); in assay [5], 64 µg/mL (≈ 147 µM); in assay [6], 128 µg/mL (≈ 293 µM). The MIC came to 16 µg/mL (≈ 36.7 µM) in assay [7]; 64 µg/mL (≈ 147 µM) in assay [8]; 64 µg/mL (≈ 147 µM) in assay [9]; 64 µg/mL (≈ 147 µM) in assay [10]; 0.5 µg/mL (≈ 1.15 µM) in assay [11].
`CC(=O)Nc1ccc(S(=O)(=O)/C(C#N)=C/c2cn(CC(=O)N(C(C)C)C(C)C)c3ccccc23)cc1`: the minimal inhibitory concentration (MIC) came to 64 µg/mL (≈ 126 µM) in [1]; 64 µg/mL (≈ 126 µM) in assay [2]; 32 µg/mL (≈ 63.2 µM) in [3]; 32 µg/mL (≈ 63.2 µM) in assay [4]; 64 µg/mL (≈ 126 µM) in assay [5]; 32 µg/mL (≈ 63.2 µM) in assay [6]. Besides, the MIC stood at 64 µg/mL (≈ 126 µM) in assay [7]; 64 µg/mL (≈ 126 µM) in assay [8]; 32 µg/mL (≈ 63.2 µM) in assay [9]; 64 µg/mL (≈ 126 µM) in assay [10]; 64 µg/mL (≈ 126 µM) in assay [11].
